In patent publication US20230339970A1, “CASEIN KINASE 1 DELTA MODULATORS” (priority 2020, published 2023):

Assays:
human CSNK1D = target: T1, human CSNK1D (Homo sapiens, UniProt P48730); test: Whole Cell nBRET CSNK1D Binding Assay; conditions: living CHO cells stably expressing human CSNK1D tagged with nanoluciferase; NanoBret tracer 130 nM; 2 hours at 37 C
T1 construct: expressed in transfected cells

[1] = target: T2, human recombinant GST cleaved CSNK1D (Homo sapiens, UniProt P48730); test: Purified Enzyme Assay (ADP-Glo CSNK1D Kinase Assay); assay type: biochemical; conditions: 2 nM CSNK1D; peptide substrate 150 μM; ATP 20 μM; 45 minutes at room temperature
T2 construct: GST (cleaved yes); purchased University of Dundee clone DU 19064
T2 sequence (P48730 whole entry): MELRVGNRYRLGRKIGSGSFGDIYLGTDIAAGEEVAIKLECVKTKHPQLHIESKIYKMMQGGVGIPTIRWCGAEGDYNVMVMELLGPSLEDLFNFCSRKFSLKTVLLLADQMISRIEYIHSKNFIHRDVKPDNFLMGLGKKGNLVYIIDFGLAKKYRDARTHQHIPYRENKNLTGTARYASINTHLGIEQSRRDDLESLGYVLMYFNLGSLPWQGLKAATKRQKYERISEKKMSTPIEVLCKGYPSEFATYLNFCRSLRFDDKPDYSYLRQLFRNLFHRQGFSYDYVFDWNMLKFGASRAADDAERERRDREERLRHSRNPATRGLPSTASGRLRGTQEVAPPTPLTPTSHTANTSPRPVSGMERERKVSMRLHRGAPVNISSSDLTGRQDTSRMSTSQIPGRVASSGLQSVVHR
Outline: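 GST-cleaved human recombinant CSNK1D phosphorylates peptide PLSRTL-pS-VASLPGL with ATP; compounds added in dose-response, 45 min at room temperature. ADP formed measured by ADP-Glo luminescence and converted to percent activity.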

T1 sequence (P48730 whole entry): as above

| IC50 (human CSNK1D) [nM] | IC50 [1] [nM] | SMILES |
| --- | --- | --- |
| 173 | 25 | Cc1nc2[nH]nc(C)c2c(-c2c(-c3ccc(F)cn3)nn3c2CC[C@@H]2C[C@@H]23)c1F (single isomer, unassigned) [Example 346, (5a*R,6a*S)-3-(5-Fluoro-3,6-dimethyl-1H-pyrazolo[3,4-b]pyridin-4-yl)-2-(5-fluoropyridin-2-yl)-5,5a,6,6a-tetrahydro-4H-cyclopropa[e]pyrazolo[1,5-a]pyridine] |
| 210 | 11 | Cc1cc(-c2c(-c3ncc(F)cc3F)nn3c2CCCC3)c2cn[nH]c2n1 [Example 37, 4-[2-(3,5-Difluoro-2-pyridyl)-4,5,6,7-tetrahydropyrazolo[1,5-a]pyridin-3-yl]-6-methyl-1H-pyrazolo[3,4-b]pyridine] |
| 36 | 6 | Cc1cc(-c2c(-c3ccc(F)cc3)nn3c2OCC2(C3)CC2(F)F)c2cn[nH]c2n1 (single isomer, unassigned) [Example 475, (*R)-2,2-Difluoro-2′-(4-fluorophenyl)-3′-(6-methyl-1H-pyrazolo[3,4-b]pyridin-4-yl)-5′H,7′H-spiro[cyclopropane-1,6′-pyrazolo[5,1-b][1,3]oxazine]] |
| 82 | 4 | Cc1cc(-c2c(-c3ccc(F)cn3)nn3c2CCC2C3C2(F)F)c2cn[nH]c2n1 (racemic) [Example 59, (Racemic) 6,6-Difluoro-2-(5-fluoropyridin-2-yl)-3-(6-methyl-1H-pyrazolo[3,4-b]pyridin-4-yl)-5,5a,6,6a-tetrahydro-4H-cyclopropa[e]pyrazolo[1,5-a]pyridine] |
| 228 | 10 | Fc1ccc(-c2nn3c(c2-c2c(F)cnc4[nH]ncc24)OC[C@@H]2C[C@@H]2C3)nc1 (stereo in doubt) [Example 480, (5a*R,6a*S)-3-(5-Fluoro-1H-pyrazolo[3,4-b]pyridin-4-yl)-2-(5-fluoropyridin-2-yl)-5a,6,6a,7-tetrahydro-5H-cyclopropa[e]pyrazolo[5,1-b][1,3]oxazepine] |
| 1460 | 54 | Cc1nc2[nH]ncc2c(-c2c(-c3ccc(F)cn3)nn3c2CC2(C3)CC2(F)F)c1F (single isomer, unassigned) [Example 263, (*R)-1′.1′-Difluoro-3-(5-fluoro-6-methyl-1H-pyrazolo[3,4-b]pyridin-4-yl)-2-(5-fluoro-2-pyridyl)spiro[4,6-dihydropyrrolo[1,2-b]pyrazole-5,2′-cyclopropane]] |
| 3240 | 32 | O=C1OCCn2nc(-c3ccc(F)cc3)c(-c3ccnc4[nH]ncc34)c21 [Example 181, 2-(4-Fluorophenyl)-3-(1H-pyrazolo[3,4-b]pyridin-4-yl)-6,7-dihydropyrazolo[5,1-c][1,4]oxazin-4-one] |
| 100 | 11 | C[C@@]1(CF)CCc2c(-c3ccncc3)c(-c3ccc(F)cn3)nn2C1 (single isomer, unassigned) [Example 285, (*R)-6-(Fluoromethyl)-2-(5-fluoro-2-pyridyl)-6-methyl-3-(4-pyridyl)-5,7-dihydro-4H-pyrazolo[1,5-a]pyridine] |
| 71 | 6 | Fc1ccc(-c2nn3c(c2-c2c(F)cnc4[nH]ncc24)CC2(C3)CC2(F)F)nc1 (single isomer, unassigned) [Example 258, (*S)-2,2-Difluoro-3′-(5-fluoro-1H-pyrazolo[3,4-b]pyridin-4-yl)-2′-(5-fluoropyridin-2-yl)-4′H,6′H-spiro[cyclopropane-1,5′-pyrrolo[1,2-b]pyrazole]] |
| 55 | 6 | C[C@@H]1[C@@H](C)OCc2c(-c3ccnc4[nH]ncc34)c(-c3ccc(F)cc3)nn21 (relative stereo) [Example 114, (6*R,7*R)-2-(4-Fluorophenyl)-6,7-dimethyl-3-(1H-pyrazolo[3,4-b]pyridin-4-yl)-6,7-dihydro-4H-pyrazolo[5,1-c][1,4]oxazine] |
| 48 | 9 | CC1(C)CCc2c(-c3c(F)cnc4[nH]ncc34)c(-c3ccc(F)cn3)nn2C1 [Example 282, 5-Fluoro-4-[2-(5-fluoro-2-pyridyl)-6,6-dimethyl-5,7-dihydro-4H-pyrazolo[1,5-a]pyridin-3-yl]-1H-pyrazolo[3,4-b]pyridine] |
| 76 | 9 | [2H]C([2H])([2H])[C@]1(C(F)(F)F)Cn2nc(-c3ccc(F)cn3)c(-c3cc(C)nc4[nH]nc(C)c34)c2CO1 (single isomer, unassigned) [Example 428, (*R)-3-(3,6-Dimethyl-1H-pyrazolo[3,4-b]pyridin-4-yl)-2-(5-fluoropyridin-2-yl)-6-(methyl-d3)-6-(trifluoromethyl)-6,7-dihydro-4H-pyrazolo[5,1-c][1,4]oxazine] |
| 2 | 1 | CC(=O)Nc1cc(-c2c(-c3ccc(F)cc3)nn3c2C[C@H](F)C3)ccn1 [Example 229, N-[4-[(5S)-5-Fluoro-2-(4-fluorophenyl)-5,6-dihydro-4H-pyrrolo[1,2-b]pyrazol-3-yl]-2-pyridyl]acetamide] |
| 51 | 4 | C[C@@H]1CCc2c(-c3ccnc4[nH]ncc34)c(-c3ccc(F)cc3)nn21 [Example 16, 4-[(6R)-2-(4-Fluorophenyl)-6-methyl-5,6-dihydro-4H-pyrrolo[1,2-b]pyrazol-3-yl]-1H-pyrazolo[3,4-b]pyridine] |
| 894 | 22 | CCn1ncc2cc(-c3c(-c4ccc(F)cn4)nn4c3CCC4)cnc21 [Example 223, 1-Ethyl-5-(2-(5-fluoropyridin-2-yl)-5,6-dihydro-4H-pyrrolo[1,2-b]pyrazol-3-yl)-1H-pyrazolo[3,4-b]pyridine] |
| 73 | 6 | Cc1cc(-c2c(-c3ccc(F)cc3)nn3c2C[C@H]2C[C@H]23)c2cn[nH]c2n1 [Example 269] |
| 3960 | 156 | Fc1ccc(-c2nn3c(c2-c2c(F)cnc4[nH]ncc24)COC2(C3)CC2(F)F)nc1 (single isomer, unassigned) [Example 436, (*S)-1′1l′-Difluoro-3-(5-fluoro-1H-pyrazolo[3,4-b]pyridin-4-yl)-2-(5-fluoro-2-pyridyl)spiro[4,7-dihydropyrazolo[5,1-c][1,4]oxazine-6,2′-cyclopropane]] |
| 9660 | 162 | Cc1nc2cc(-c3c(-c4ccc(F)cn4)nn4c3COC(C)(C)C4)ccn2n1 [Example 386, 2-(5-Fluoropyridin-2-yl)-6,6-dimethyl-3-(2-methyl-[1,2,4]triazolo[1,5-a]pyridin-7-yl)-6,7-dihydro-4H-pyrazolo[5,1-c][1,4]oxazine] |
| 3 | 1 | Fc1ccc(-c2nn3c(c2-c2ccnc4[nH]ncc24)[C@@H]2CC[C@H]3C2)cc1 (single isomer, unassigned) [Example 60, 4*R,7*S)-2-(4-Fluorophenyl)-3-(1H-pyrazolo[3,4-b]pyridin-4-yl)-4,5,6,7-tetrahydro-4,7-methanopyrazolo[1,5-a]pyridine] |
| 110 | 4 | COCC1(F)CCc2c(-c3ccnc4[nH]ncc34)c(-c3ccc(F)cn3)nn2C1 (single isomer, unassigned) [Example 301, (*R)-4-[6-Fluoro-2-(5-fluoro-2-pyridyl)-6-(methoxymethyl)-5,7-dihydro-4H-pyrazolo[1,5-a]pyridin-3-yl]-1H-pyrazolo[3,4-b]pyridine] |
| 169 | 12 | Cc1cc(-c2c(-c3ccc(F)cn3)nn3c2CCC(F)(F)C3)c2cn[nH]c2n1 [Example 45, 4-(6,6-Difluoro-2-(5-fluoropyridin-2-yl)-4,5,6,7-tetrahydropyrazolo[1,5-a]pyridin-3-yl)-6-methyl-1H-pyrazolo[3,4-b]pyridine] |
| 821 | 26 | Cc1cc(-c2c(-c3ccc(F)cn3)nn3c2O[C@H](C)C[C@H]3C)c2cn[nH]c2n1 (single isomer, unassigned) [Example 208, (5*R,7*R)-2-(5-Fluoro-2-pyridyl)-5,7-dimethyl-3-(6-methyl-1H-pyrazolo[3,4-b]pyridin-4-yl)-6,7-dihydro-5H-pyrazolo[5,1-b][1,3]oxazine] |
| 11 | 1 | Cc1cc(-c2c(-c3ccc(F)cc3)nn3c2OC[C@H](C)C3)c2cn[nH]c2n1 (single isomer, unassigned) [Example 194, (*R)-2-(4-Fluorophenyl)-6-methyl-3-(6-methyl-1H-pyrazolo[3,4-b]pyridin-4-yl)-6,7-dihydro-5H-pyrazolo[5,1-b][1,3]oxazine] |
| 34 | 3 | [2H]C([2H])([2H])OC[C@]1(F)CCc2c(-c3cc(C)nc4[nH]ncc34)c(-c3ccc(F)cn3)nn2C1 (single isomer, unassigned) [Example 310, (*S)-4-(6-Fluoro-2-(5-fluoropyridin-2-yl)-6-((methoxy-d3)methyl)-4,5,6,7-tetrahydropyrazolo[1,5-a]pyridin-3-yl)-6-methyl-1H-pyrazolo[3,4-b]pyridine] |
| 320 | 10 | Cc1cc(-c2c(-c3ncc(F)cc3F)nn3c2OCCC3)c2cn[nH]c2n1 [Example 189, 2-(3,5-Difluoro-2-pyridyl)-3-(6-methyl-1H-pyrazolo[3,4-b]pyridin-4-yl)-6,7-dihydro-5H-pyrazolo[5,1-b][1,3]oxazine] |
| 836 | 19 | COc1ccc2nccc(-c3c(-c4ccc(F)cn4)nn4c3COC(C)(C)C4)c2n1 [Example 168, 2-(5-Fluoropyridin-2-yl)-3-(6-methoxy-1,5-naphthyridin-4-yl)-6,6-dimethyl-6,7-dihydro-4H-pyrazolo[5,1-c][1,4]oxazine] |

| SMILES | IC50 (human CSNK1D) [nM] | IC50 [1] [nM] |
| --- | --- | --- |
| Fc1ccc(-c2nn3c(c2-c2ccnc4[nH]ncc24)CCC(F)(F)C3)nc1 [Example 44, 4-(6,6-Difluoro-2-(5-fluoropyridin-2-yl)-4,5,6,7-tetrahydropyrazolo[1,5-a]pyridin-3-yl)-1H-pyrazolo[3,4-b]pyridine] | 296 | 16 |
